From a melting point compilation (Tetko et al.; mined from patent text by program, amines drawn as free bases though some values may be those of a salt)

**Q.** For N#Cc1ccccc1N1CCN(CCC=C2c3ccccc3CCc3ccccc32)CC1, which melting point is on record?
**A.** 112 to 114 °C

**Q.** For C=CCOc1cccc(-c2cn3ccc4ccccc4c3n2)c1, which melting point is on record?
**A.** 83 to 85 °C

**Q.** Which melting point does the source give for NC(=O)N(O)Cc1ccc2c(c1)CCN2CCCc1ccccc1 here?
**A.** 94 to 94.5 °C

**Q.** For COc1ccc(CNc2cc3c(Nc4ccc5c(cnn5Cc5cccc(F)c5)c4)ncnc3cn2)cc1, which melting point is on record?
**A.** 196 to 198 °C

**Q.** With O=C1OC(CCc2ccccc2)(c2ccccc2)CC(O)=C1Sc1ccccc1 (stereo not drawn) as the compound, how does the melting point read?
**A.** 58 to 60 °C

**Q.** With CCc1cn(-c2nc(C)nc(NC)n2)c2ccccc12 as the compound, how does the melting point read?
**A.** 174 to 175 °C

**Q.** With CN1CCc2c(cc3ccccc3c2N)C1 as the compound, how does the melting point read?
**A.** 97 to 99 °C

**Q.** With CCOC(=O)C(Cc1ccc(O)cc1)Oc1ccc(Cl)cc1 (stereo not drawn) as the compound, how does the melting point read?
**A.** 90 to 93 °C

**Q.** Which melting point does the source give for CC(=O)SCC(=Cc1ccccc1)C(=O)NCCC(=O)OCc1ccccc1 here?
**A.** 80 °C

**Q.** For CC(C)(C)OC(=O)CN(C(=O)CN1C(=O)c2ccccc2C1=O)c1ccccc1, which melting point is on record?
**A.** 126 °C

**Q.** Which melting point does the source give for COC(=O)c1cc(S(N)(=O)=O)ccc1S(=O)(=O)CCCO here?
**A.** 124 to 126 °C

**Q.** Which melting point does the source give for Nc1nccnc1Cc1ccccc1 here?
**A.** 93 to 96 °C

**Q.** For Cc1ccc(C2C3=C(CC(C)(C)CC3=O)NC3=C2C(=O)CC(C)(C)C3)cc1C, which melting point is on record?
**A.** > 300 °C

**Q.** For COc1cc(OCc2ccccc2)ccc1-c1nc2ncccc2[nH]1, which melting point is on record?
**A.** 244 °C

**Q.** For O=C(CCCN1CCC(c2noc3cc(F)ccc23)CC1)c1cc2c(s1)C(=O)NCCC2, which melting point is on record?
**A.** 186 to 187 °C

**Q.** With CC(C)c1cc(Oc2c(I)cc(CP(=O)(O)O)cc2I)ccc1O as the compound, how does the melting point read?
**A.** > 220 °C

**Q.** For Oc1ccc(-c2cc3c(Oc4ccc(Cl)cc4)cncc3s2)cc1, which melting point is on record?
**A.** 213 to 215 °C

**Q.** Which melting point does the source give for NC(=O)ON(Cc1ccccc1)Cc1ccccc1 here?
**A.** 127 to 129 °C

**Q.** Which melting point does the source give for O=C(Cn1nnc2ccccc21)Nc1ccc(-n2nc(C(F)(F)F)c(Cl)c2C2CC2)nc1 here?
**A.** 182 to 189 °C

**Q.** With COc1cc2ncnc(N3CCN(c4ccc5c(c4)CCC(=O)N5)CC3)c2cc1OC as the compound, how does the melting point read?
**A.** 261 to 262 °C

**Q.** For CCc1cc(OCc2ccc(-c3ccccc3-c3nnn(C(c4ccccc4)(c4ccccc4)c4ccccc4)n3)cc2)c2nc(OCC=O)ccc2n1, which melting point is on record?
**A.** 168 to 169 °C

**Q.** For Cc1ccc(C)c(-c2cc(CO)ccc2CO)c1, which melting point is on record?
**A.** 145 to 148 °C

**Q.** With O=C1NC(=O)C(Br)(Cc2ccccc2)C(=O)N1 as the compound, how does the melting point read?
**A.** 164 to 166 °C

**Q.** Which melting point does the source give for c1ccc2c(c1)c1ccccc1n2-c1ccc(-c2ccc(-n3c4ccccc4c4ccccc43)cc2)cc1 here?
**A.** 280 to 281 °C

**Q.** For COc1cc2c(Nc3ccc(Cl)cc3F)ncnc2cc1OCCCC(=O)N1CCOCC1, which melting point is on record?
**A.** 216 to 217 °C

**Q.** For COc1cccc2c1Cc1ccccc1C2(CC(=O)O)CC(=O)O, which melting point is on record?
**A.** 150 to 153 °C

**Q.** Which melting point does the source give for O=C(CN1C(=O)c2ccccc2C1=O)Nc1ccccc1Cc1ccccc1 here?
**A.** 232 °C

**Q.** With CC12CCC3C(CC(O)C4(O)CC(O)CCC34C)C1CCC2=O (stereo not drawn) as the compound, how does the melting point read?
**A.** 304 to 306 °C

**Q.** For OCC1OC(n2c(Cl)nc3cc(Cl)c(Cl)cc32)C(O)C1O (stereo not drawn), which melting point is on record?
**A.** 175 to 176 °C

**Q.** For O=c1[nH]c(=O)n(CCCCN2CCC(OC(c3ccccc3)c3ccccc3)CC2)c2ccc(Cl)cc12, which melting point is on record?
**A.** 209 to 210 °C

**Q.** With CC(C)O[Si](C)(CCl)c1ccc(-c2ccccc2)cc1 (stereo not drawn) as the compound, how does the melting point read?
**A.** 35 to 38 °C

**Q.** Which melting point does the source give for COc1cc(OC)cc(-c2ncn(-c3cc(OC)c(OC)c(OC)c3)c2-c2ccc(N(C)C)cc2)c1 here?
**A.** 151 to 154 °C

**Q.** For CC1(CNC=O)CC(=O)c2ccccc2O1 (stereo not drawn), which melting point is on record?
**A.** 96 to 98 °C

**Q.** With CC(C)(Oc1ccc(OCc2noc(-c3ccc(C(C)(C)C)cc3)n2)cc1)C(=O)O as the compound, how does the melting point read?
**A.** 143 °C

**Q.** Which melting point does the source give for Cc1nc(-n2nnc(C(=O)NCc3ccccc3)c2C)sc1C(=O)NCc1ccccc1 here?
**A.** 183 to 186 °C

**Q.** With Clc1ccc2ccc(/C=C/c3ccc(CN4CCc5cccc(CCc6nnn[nH]6)c54)cc3)nc2c1 as the compound, how does the melting point read?
**A.** 83 to 87 °C

**Q.** Which melting point does the source give for CSc1ccc([N+](=O)[O-])c(C(=O)NCC2CCN(C(c3ccccc3)c3ccccc3)CC2)c1 here?
**A.** 179 to 181 °C

**Q.** Which melting point does the source give for NC1=NC(c2ccc(F)cc2)CO1 (stereo not drawn) here?
**A.** 116 to 121 °C

**Q.** With CNC(=O)c1cc2c(Oc3ccc(Cl)c(F)c3)cncc2s1 as the compound, how does the melting point read?
**A.** 62 to 64 °C

**Q.** Which melting point does the source give for CCOC(=O)c1cc(/C=C/c2ccc3ccccc3n2)cn1C here?
**A.** 140 to 142 °C

**Q.** With CS(=O)(=O)N1CCS(=O)c2ccccc2C1 (stereo not drawn) as the compound, how does the melting point read?
**A.** 195 to 197 °C

**Q.** Which melting point does the source give for CC(C)(C)OC(=O)N1CCC(c2nc3cc(-c4ccc(-n5cnnn5)cc4)ccc3o2)CC1 here?
**A.** 207 to 211 °C

**Q.** Which melting point does the source give for CCn1ncc2c3onc(-c4cccc(O)c4)c3cnc21 here?
**A.** 187 to 188 °C

**Q.** For CCCCCCCCC(SCCCCCC)C(=O)NC1(OC)C=C(C)C=CN1 (stereo not drawn), which melting point is on record?
**A.** 83 to 85 °C

**Q.** For COc1ccc(CC2CCc3ncc(C)cc3C2=O)cc1 (stereo not drawn), which melting point is on record?
**A.** 92 to 93 °C

**Q.** For COc1cc(OC)c(-c2cccs2)cc1C#CC(=O)c1ccc(C(=O)O)cc1, which melting point is on record?
**A.** 220 °C

**Q.** For CC1(C)c2ccccc2C(C)(C)C1(S)CC(=O)O, which melting point is on record?
**A.** 159 to 161 °C

**Q.** With COc1ccc(C(=O)c2cc3ccncc3[nH]2)cc1 as the compound, how does the melting point read?
**A.** 225 to 228 °C
